Structures are written as SMILES.

The test system of this test is lung cancer cell line NCI-H460. As to the kind of experiment: inhibition of cell proliferation. Type of test: cell-based. The settings on record: Homo sapiens. The procedure:
In order to evaluate the potential of HA nanocapsules encapsulating cytostatic docetaxel molecule to inhibit cell proliferation of lung cancer cell line NCI-H460, HA nanocapsules were prepared using hexadecyltrimethylammonium bromide (1.8 mg) according to the procedure described in Example 6. The results in FIG. 7 show the greatest ability to inhibit the proliferation of nanocapsules encapsulating docetaxel compared to the free molecule when systems are brought into contact for 2 to 48 h with the cancer cells. Moreover, one can see the safety of the systems without docetaxel. IC50 values, the concentration which produces 50% mortality of the population, was calculated using Graph Pad Prism 2.1 (Graph Pad Software).
In order to evaluate the potential of Pasn nanocapsules encapsulating docetaxel to inhibit cell proliferation of lung cancer cell line NCI-H460, PAsn nanocapsules were prepared using hexadecyltrimethylammonium bromide (1.8 mg) according to the procedure described in Example 12. The results in FIG. 11 show the greatest ability to inhibit the proliferation of nanocapsules encapsulating docetaxel compared to the free molecule when systems are brought into contact for 2 to 48 h with the cancer cells. Moreover, one can see the safety of the systems without docetaxel. IC50 values were calculated using Graph Pad Prism 2.1 (Graph Pad Software).

`CC(=O)O[C@@]12CO[C@@H]1C[C@H](O)[C@@]1(C)C(=O)[C@H](O)C3=C(C)[C@@H](OC(=O)[C@H](O)[C@@H](NC(=O)OC(C)(C)C)c4ccccc4)C[C@@](O)([C@@H](OC(=O)c4ccccc4)[C@H]21)C3(C)C` [docetaxel] gave an IC50 (NCI-H460, in contact with the cells for 2 h) of 105 nM and an IC50 (NCI-H460, in contact with the cells for 48 h) of 36 nM.

(Values after patent US9415019B2, “Nanocapsules with a polymer shell” (Universidade de Santiago de Compostela, priority 2011, dated 2016).)
